The subject of one assay is SARS-CoV-2 strain USA-WA1/2020. The assay can be described thus: microbe, parasite or virus in culture. The format is cell-based. To be noted: Severe acute respiratory syndrome coronavirus 2, HeLa-ACE2, 24 h, HeLa-ACE2 cells, SARS-CoV-2 infection, 24 h; cells given as a bound; read-out: EC50, uM (Hela).
Turning to `CC(C)C[C@H](NC(=O)C1CCCNC1=O)C(=O)N[C@@H](C[C@@H]1CCNC1=O)C(=O)COC(F)(F)F` (stereo partly drawn) [Compound 190, N-((S)-4-methyl-1-oxo-1-(((S)-3-oxo-1-((S)-2-oxopyrrolidin-3-yl)-4-(trifluoromethoxy)butan-2-yl)amino)pentan-2-yl)-2-oxopiperidine-3-carboxamide], the EC50 was more than 1 µM.

Still in this assay, the particulars now being: Severe acute respiratory syndrome coronavirus 2, HeLa-ACE2, 24 h, HeLa-ACE2 cells, SARS-CoV-2 infection, 24 h; class symbols; read-out: EC50, uM (Hela).
Consider `CC(C)C[C@H](NC(=O)c1cc2ccncc2[nH]1)C(=O)N[C@@H](C[C@@H]1CCNC1=O)C(=O)COC(F)(F)F` [Compound 187, N-((S)-4-methyl-1-oxo-1-(((S)-3-oxo-1-((S)-2-oxopyrrolidin-3-yl)-4-(trifluoromethoxy)butan-2-yl)amino)pentan-2-yl)-1H-pyrrolo[2,3-c]pyridine-2-carboxamide], for which the concentration for a half-maximal effect (EC50) is 0.05 to 0.2 µM.
The same measure, in the same setting: for `COc1cccc(NC(=O)C(=O)N[C@@H](CC(C)C)C(=O)N[C@@H](C[C@@H]2CCNC2=O)C(=O)COC(F)(F)F)c1` [Compound 188, N1-(3-methoxyphenyl)-N2-((S)-4-methyl-1-oxo-1-(((S)-3-oxo-1-((S)-2-oxopyrrolidin-3-yl)-4-(trifluoromethoxy)butan-2-yl)amino)pentan-2-yl)oxalamide] the value was less than 0.05 µM.
On the same count and under the same terms, under `CC(C)C[C@H](NC(=O)C(=O)NC12CC(C1)C2)C(=O)N[C@@H](C[C@@H]1CCNC1=O)C(=O)COC(F)(F)F` [Compound 191, N1-(bicyclo[1.1.1]-pentan-1-yl)-N2-((S)-4-methyl-1-oxo-1-(((S)-3-oxo-1-((S)-2-oxopyrrolidin-3-yl)-4-(trifluoromethoxy)butan-2-yl)amino)pentan-2-yl)oxalamide] stands less than 0.05 µM; under `O=C(N[C@@H](CC1CC1)C(=O)N[C@@H](C[C@@H]1CCNC1=O)C(=O)COC(F)(F)F)c1cc(-c2ccccc2)n[nH]1` [Compound 192, N-((S)-3-cyclopropyl-1-oxo-1-(((S)-3-oxo-1-((S)-2-oxopyrrolidin-3-yl)-4-(trifluoromethoxy)butan-2-yl)amino)propan-2-yl)-3-phenyl-1H-pyrazole-5-carboxamide], 0.05 to 0.2 µM; under `COCC(C)(C)NC(=O)C(=O)N[C@@H](CC(C)C)C(=O)N[C@@H](C[C@@H]1CCNC1=O)C(=O)COC(F)(F)F` [Compound 193, N1-(1-methoxy-2-methylpropan-2-yl)-N2-((S)-4-methyl-1-oxo-1-(((S)-3-oxo-1-((S)-2-oxopyrrolidin-3-yl)-4-(trifluoromethoxy)butan-2-yl)amino)pentan-2-yl)oxalamide], less than 0.05 µM.
The same measure, in the same setting: for `CC(C)C[C@H](NC(=O)c1cc2cccnc2[nH]1)C(=O)N[C@@H](C[C@@H]1CCNC1=O)C(=O)COC(F)(F)F` [Compound 194, N-((S)-4-methyl-1-oxo-1-(((S)-3-oxo-1-((S)-2-oxopyrrolidin-3-yl)-4-(trifluoromethoxy)butan-2-yl)amino)pentan-2-yl)-1H-pyrrolo[2,3-b]pyridine-2-carboxamide] the value was less than 0.05 µM.
As for `CC(C)C[C@H](NC(=O)C(=O)N1CCCc2ccccc21)C(=O)N[C@@H](CC1CCNC1=O)C(=O)COC(F)(F)F` (stereo partly drawn) [Compound 196, (2S)-2-(2-(3,4-dihydroquinolin-1(2H)-yl)-2-oxoacetamido)-4-methyl-N-((2S)-3-oxo-1-(2-oxopyrrolidin-3-yl)-4-(trifluoromethoxy)butan-2-yl)pentanamide], the EC50 was less than 0.05 µM.
Still for that read-out and setting: for `CC(C)C[C@H](NC(=O)C(=O)Nc1ccccc1F)c1cn([C@@H](C[C@@H]2CCNC2=O)C(=O)COc2c(F)c(F)cc(F)c2F)nn1` [Compound 197, N1-(2-fluorophenyl)-N2-((S)-3-methyl-1-(1-((S)-3-oxo-1-((S)-2-oxopyrrolidin-3-yl)-4-(2,3,5,6-tetrafluorophenoxy)butan-2-yl)-1H-1,2,3-triazol-4-yl)butyl)oxalamide] the value was 0.5 to 1 µM.

Still in this assay, the particulars now being: Severe acute respiratory syndrome coronavirus 2, HeLa-ACE2, 24 h; read-out: EC50, uM (Hela).
For `COc1cccc2[nH]c(C(=O)N[C@@H](CC(C)C)C(=O)N[C@@H](CC3CCNC3=O)C(=O)COP(=O)(c3ccccc3)c3ccccc3)cc12` (stereo partly drawn) [Compound 195, (3S)-3-((S)-2-(4-methoxy-1H-indole-2-carboxamido)-4-methylpentanamido)-2-oxo-4-(2-oxopyrrolidin-3-yl)butyl diphenylphosphinate], the EC50 lay within 0.05 to 0.2 µM.

The values are drawn from patent publication US11708348B2, “Protease inhibitors for treatment of coronavirus infections” (The Scripps Research Institute, priority 2021, dated 2023).
